{"source": "patent US20250099634A1", "about": "“METHOD OF TREATING CANCER” (Novartis AG, priority 2023, published 2025)", "key": {"[1]": {"system": "somatostatin receptor-positive tumors, including GEP-NETS", "settings": "1,214 patients; cited from earlier work"}, "BCRP": {"target": "BCRP (Homo sapiens, UniProt Q9UNQ0)", "sequence (Q9UNQ0 whole entry)": "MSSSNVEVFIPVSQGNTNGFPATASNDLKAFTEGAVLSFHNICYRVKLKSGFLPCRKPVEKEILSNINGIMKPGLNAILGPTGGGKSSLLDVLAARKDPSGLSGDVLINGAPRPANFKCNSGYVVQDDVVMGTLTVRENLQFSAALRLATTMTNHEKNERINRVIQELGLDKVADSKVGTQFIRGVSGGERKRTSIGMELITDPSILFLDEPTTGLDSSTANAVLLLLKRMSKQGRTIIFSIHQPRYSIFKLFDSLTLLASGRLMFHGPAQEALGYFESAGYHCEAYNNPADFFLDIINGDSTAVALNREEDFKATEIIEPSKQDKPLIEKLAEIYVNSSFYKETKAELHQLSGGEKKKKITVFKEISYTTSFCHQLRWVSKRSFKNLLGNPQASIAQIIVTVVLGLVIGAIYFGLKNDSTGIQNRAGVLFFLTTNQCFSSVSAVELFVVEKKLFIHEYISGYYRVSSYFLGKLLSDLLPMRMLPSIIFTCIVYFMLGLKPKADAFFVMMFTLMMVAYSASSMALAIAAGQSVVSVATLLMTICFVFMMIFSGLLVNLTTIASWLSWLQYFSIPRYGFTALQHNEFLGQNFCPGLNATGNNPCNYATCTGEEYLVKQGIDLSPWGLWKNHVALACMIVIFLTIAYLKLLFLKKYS", "settings": "not told"}, "OATP1B1": {"target": "OATP1B1 (Homo sapiens, UniProt Q9Y6L6)", "sequence (Q9Y6L6 whole entry)": "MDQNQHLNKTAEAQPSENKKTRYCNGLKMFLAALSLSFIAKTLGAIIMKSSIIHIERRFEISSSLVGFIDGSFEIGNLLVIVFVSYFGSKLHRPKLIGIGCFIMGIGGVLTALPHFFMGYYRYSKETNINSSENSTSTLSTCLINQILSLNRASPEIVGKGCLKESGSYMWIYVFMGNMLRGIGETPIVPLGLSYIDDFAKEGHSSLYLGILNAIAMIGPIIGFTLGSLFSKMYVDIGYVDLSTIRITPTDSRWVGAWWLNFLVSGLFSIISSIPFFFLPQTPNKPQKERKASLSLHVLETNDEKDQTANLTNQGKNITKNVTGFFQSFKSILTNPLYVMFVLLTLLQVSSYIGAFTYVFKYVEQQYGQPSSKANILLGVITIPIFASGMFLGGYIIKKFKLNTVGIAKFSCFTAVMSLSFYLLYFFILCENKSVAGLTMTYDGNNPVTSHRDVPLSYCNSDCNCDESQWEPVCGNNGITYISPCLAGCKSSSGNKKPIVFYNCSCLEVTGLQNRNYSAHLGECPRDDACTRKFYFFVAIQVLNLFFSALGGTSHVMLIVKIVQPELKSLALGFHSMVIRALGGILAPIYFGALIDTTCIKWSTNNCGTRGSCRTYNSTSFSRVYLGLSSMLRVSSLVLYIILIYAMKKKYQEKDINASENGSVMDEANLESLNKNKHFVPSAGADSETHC"}, "OATP1B3": {"target": "OATP1B3 (Homo sapiens, UniProt Q9NPD5)"}, "[2]": {"target": "P-glycoprotein (efflux transporter) (Homo sapiens, UniProt P08183)", "sequence (P08183 whole entry)": "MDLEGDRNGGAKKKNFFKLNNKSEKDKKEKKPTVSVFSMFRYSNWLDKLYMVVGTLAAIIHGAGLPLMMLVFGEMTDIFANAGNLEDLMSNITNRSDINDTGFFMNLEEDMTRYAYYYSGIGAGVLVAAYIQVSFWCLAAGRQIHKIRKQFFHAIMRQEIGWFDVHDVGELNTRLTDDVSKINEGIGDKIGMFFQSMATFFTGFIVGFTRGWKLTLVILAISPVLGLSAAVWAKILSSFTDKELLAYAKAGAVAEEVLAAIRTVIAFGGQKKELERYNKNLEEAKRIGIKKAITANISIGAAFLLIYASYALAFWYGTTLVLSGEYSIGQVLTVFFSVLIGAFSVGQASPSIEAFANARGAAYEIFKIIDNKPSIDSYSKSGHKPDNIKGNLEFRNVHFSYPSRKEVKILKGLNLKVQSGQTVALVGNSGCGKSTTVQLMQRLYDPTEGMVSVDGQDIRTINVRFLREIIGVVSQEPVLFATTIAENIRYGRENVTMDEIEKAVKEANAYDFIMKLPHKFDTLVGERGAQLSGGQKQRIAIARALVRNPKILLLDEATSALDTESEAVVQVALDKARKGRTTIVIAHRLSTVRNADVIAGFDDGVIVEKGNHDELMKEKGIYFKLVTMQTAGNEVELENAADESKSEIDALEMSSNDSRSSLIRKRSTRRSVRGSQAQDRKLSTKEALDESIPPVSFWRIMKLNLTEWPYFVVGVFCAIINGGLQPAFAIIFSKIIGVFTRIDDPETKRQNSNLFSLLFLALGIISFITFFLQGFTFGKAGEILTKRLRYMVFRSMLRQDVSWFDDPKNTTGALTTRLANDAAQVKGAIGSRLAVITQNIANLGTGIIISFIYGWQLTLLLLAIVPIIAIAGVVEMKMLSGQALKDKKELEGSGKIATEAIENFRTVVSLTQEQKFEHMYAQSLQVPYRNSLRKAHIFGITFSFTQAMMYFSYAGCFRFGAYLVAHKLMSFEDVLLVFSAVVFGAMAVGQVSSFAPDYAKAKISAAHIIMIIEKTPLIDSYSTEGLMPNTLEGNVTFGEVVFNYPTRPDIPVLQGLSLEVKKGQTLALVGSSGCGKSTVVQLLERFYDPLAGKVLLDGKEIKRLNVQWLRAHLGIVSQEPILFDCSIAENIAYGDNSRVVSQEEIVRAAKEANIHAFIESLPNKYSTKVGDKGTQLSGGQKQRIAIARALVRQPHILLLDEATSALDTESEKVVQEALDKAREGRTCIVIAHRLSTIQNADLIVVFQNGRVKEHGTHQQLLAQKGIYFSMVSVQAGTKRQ"}, "OCT2": {"target": "OCT2 (Homo sapiens, UniProt O15244)", "sequence (O15244 whole entry)": "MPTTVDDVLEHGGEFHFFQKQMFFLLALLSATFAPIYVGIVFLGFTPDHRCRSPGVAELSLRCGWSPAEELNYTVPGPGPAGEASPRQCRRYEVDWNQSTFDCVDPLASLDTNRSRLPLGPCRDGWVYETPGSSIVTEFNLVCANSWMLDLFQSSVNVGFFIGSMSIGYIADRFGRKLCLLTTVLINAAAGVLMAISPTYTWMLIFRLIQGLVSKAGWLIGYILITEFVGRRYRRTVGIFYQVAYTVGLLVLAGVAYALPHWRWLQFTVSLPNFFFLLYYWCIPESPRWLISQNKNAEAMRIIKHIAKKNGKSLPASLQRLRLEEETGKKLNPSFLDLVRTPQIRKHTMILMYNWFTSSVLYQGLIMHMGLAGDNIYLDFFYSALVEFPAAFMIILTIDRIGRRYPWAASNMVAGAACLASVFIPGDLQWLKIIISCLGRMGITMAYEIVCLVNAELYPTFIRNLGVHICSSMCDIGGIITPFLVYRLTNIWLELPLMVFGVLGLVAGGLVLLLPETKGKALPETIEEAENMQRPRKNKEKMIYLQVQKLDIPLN"}, "OCT1": {"target": "OCT1 (Homo sapiens, UniProt O15245)", "sequence (O15245 whole entry)": "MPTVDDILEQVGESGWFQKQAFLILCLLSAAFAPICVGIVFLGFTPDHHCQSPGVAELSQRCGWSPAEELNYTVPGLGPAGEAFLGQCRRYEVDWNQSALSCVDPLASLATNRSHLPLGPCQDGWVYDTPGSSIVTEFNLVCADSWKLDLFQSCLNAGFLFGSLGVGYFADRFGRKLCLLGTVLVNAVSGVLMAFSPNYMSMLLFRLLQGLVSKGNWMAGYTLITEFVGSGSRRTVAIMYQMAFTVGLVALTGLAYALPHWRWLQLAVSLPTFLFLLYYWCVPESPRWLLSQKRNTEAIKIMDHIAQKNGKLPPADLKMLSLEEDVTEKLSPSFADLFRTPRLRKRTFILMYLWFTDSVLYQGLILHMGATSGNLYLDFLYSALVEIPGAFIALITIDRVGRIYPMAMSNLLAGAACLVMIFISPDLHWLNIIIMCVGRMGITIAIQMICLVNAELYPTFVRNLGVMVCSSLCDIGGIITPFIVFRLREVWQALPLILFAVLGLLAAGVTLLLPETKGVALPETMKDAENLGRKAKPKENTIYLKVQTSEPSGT"}, "OAT1": {"target": "OAT1 (Homo sapiens, UniProt Q4U2R8)", "sequence (Q4U2R8 whole entry)": "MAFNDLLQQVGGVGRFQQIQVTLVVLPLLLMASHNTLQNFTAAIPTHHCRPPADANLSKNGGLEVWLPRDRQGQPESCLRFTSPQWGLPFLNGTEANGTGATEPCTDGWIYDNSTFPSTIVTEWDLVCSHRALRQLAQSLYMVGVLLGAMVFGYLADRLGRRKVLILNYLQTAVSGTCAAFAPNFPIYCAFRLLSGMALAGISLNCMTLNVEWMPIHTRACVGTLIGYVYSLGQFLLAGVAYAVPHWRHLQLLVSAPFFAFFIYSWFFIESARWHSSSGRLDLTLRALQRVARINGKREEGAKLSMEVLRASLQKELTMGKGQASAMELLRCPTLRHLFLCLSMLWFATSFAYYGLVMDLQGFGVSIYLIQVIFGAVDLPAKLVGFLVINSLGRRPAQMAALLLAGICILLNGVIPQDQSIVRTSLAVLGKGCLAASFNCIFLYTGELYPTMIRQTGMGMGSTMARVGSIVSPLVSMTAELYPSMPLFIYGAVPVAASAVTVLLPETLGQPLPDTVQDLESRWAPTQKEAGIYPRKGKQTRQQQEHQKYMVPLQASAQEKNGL"}, "[3]": {"system": "Grade 2 and Grade 3 advanced GEP-NET", "experiment": "NETTER-2 Progression-Free Survival (PFS), central review using RECIST 1.1", "format": "in vivo, human", "settings": "for Kaplan-Meier event-free estimates (95% CI): PFS; for Kaplan-Meier event-free estimates (95% CI) / PFS Events / PFS events: Deaths / PFS events: Progression / PFS 25th percentile (95% CI) / PFS 75th percentile (95% CI) / Median PFS (95% CI): Full Analysis Set; for PFS 25th percentile (95% CI) / PFS 75th percentile (95% CI) / Median PFS (95% CI): central review, RECIST 1.1", "description": "The primary efficacy end-point is PFS as measured by objective tumor response, which is determined by RECIST criteria, Version 1.1 (Eisenhauer, et al., 2009). Tumor response will be assessed locally and centrally.\nIt is recommended that for each patient identical acquisition and reconstruction protocols be used at all time-points. Central, blinded, real-time IRC (Independent Review Committee) assessment will be conducted for determining progressive disease. Changes from randomization date will be assessed at week 16±1, week 24±1 and then every 12±1 weeks until the PFS primary analysis End-Point has been reached, then until Week 72 after randomization, unless the patient progresses or dies.\nThe primary endpoint of the study is progression-free survival (PFS), defined as the time from the date of randomization to the date of the first documented progression or death due to any cause. PFS will be assessed via central review according to RECIST 1.1.\nThe stratification will be based on following randomization stratification factors (grade: G2 vs. G3; and tumor origin: pNET vs other origin).\nAnalyses will be based on the FAS population according to the randomized treatment group and strata assigned at randomization. The PFS distribution will be estimated using the Kaplan-Meier method, and Kaplan-Meier curves, median and associated 95% confidence intervals will be presented for each treatment group. The hazard ratio for PFS will be calculated, along with its 95% confidence interval, from a stratified Cox model using the same stratification factors as for the log-rank test."}, "OAT3": {"target": "OAT3 (Homo sapiens, UniProt Q8TCC7)", "sequence (Q8TCC7 whole entry)": "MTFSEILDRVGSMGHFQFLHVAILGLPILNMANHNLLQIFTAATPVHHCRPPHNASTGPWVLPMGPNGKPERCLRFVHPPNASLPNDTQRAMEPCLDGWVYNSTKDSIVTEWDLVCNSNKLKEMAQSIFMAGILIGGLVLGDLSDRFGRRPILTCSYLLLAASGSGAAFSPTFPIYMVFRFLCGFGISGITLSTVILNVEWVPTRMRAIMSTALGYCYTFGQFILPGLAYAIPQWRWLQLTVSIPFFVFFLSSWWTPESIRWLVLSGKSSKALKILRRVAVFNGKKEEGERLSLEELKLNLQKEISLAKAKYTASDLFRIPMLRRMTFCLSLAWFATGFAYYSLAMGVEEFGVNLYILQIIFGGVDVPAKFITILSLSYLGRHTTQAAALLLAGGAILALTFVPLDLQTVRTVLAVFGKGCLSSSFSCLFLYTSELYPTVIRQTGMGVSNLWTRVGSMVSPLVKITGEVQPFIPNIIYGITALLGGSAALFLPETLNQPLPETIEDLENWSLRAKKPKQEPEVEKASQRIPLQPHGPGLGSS"}, "[4]": {"settings": "in vivo; cited from earlier work"}, "progressive GEP-NETs": {"system": "progressive GEP-NETs", "settings": "cited from earlier work"}, "serum inhibin B": {"system": "serum inhibin B", "settings": "human, in vivo; cited from earlier work"}, "[5]": {"settings": "healthy subjects, 20 mg and 60 mg; cited from earlier work"}, "metastatic midgut NET": {"system": "metastatic midgut NET", "settings": "30 mg/month, cited from earlier work"}}, "data": [{"smiles": "C[C@@H](O)[C@H](NC(=O)[C@@H]1CSSC[C@H](NC(=O)[C@@H](Cc2ccccc2)NC(=O)CN2CCN(CC(=O)[O-])CCN(CC(=O)[O-])CCN(CC(=O)[O-])CC2)C(=O)N[C@@H](Cc2ccc(O)cc2)C(=O)N[C@H](Cc2c[nH]c3ccccc23)C(=O)N[C@@H](CCCCN)C(=O)N[C@@H]([C@@H](C)O)C(=O)N1)C(=O)O.[177Lu+3]", "note": "[Lutathera, ^177Lu-DOTA^0-Tyr^3-Octreotate]", "values": [{"measurement": "Complete or partial tumor remission", "setting": "[1]", "result": 39, "unit": "%"}, {"measurement": "interaction with BCRP", "setting": "BCRP", "result": "absence of specific interaction"}, {"measurement": "interaction with OATP1B1", "setting": "OATP1B1", "result": "absence of specific interaction"}, {"measurement": "interaction with OATP1B3", "setting": "OATP1B3", "result": "absence of specific interaction"}, {"measurement": "inhibition or induction of human CYP450 enzymes", "setting": "human CYP450 enzymes", "result": "absence of inhibition or significant induction"}, {"measurement": "interaction with P-glycoprotein", "setting": "[2]", "result": "absence of specific interaction"}, {"measurement": "interaction with OCT2", "setting": "OCT2", "result": "absence of specific interaction"}, {"measurement": "interaction with OCT1", "setting": "OCT1", "result": "absence of specific interaction"}, {"measurement": "interaction with OAT1", "setting": "OAT1", "result": "absence of specific interaction"}, {"measurement": "Kaplan-Meier event-free estimates (95% CI)", "setting": "[3]; 4 months", "result": "95.8 (91.0, 98.1) %"}, {"measurement": "Kaplan-Meier event-free estimates (95% CI)", "setting": "[3]; 6 months", "result": "92.3 (86.6, 95.7) %"}, {"measurement": "Kaplan-Meier event-free estimates (95% CI)", "setting": "[3]; 9 months", "result": "85.6 (78.6, 90.5) %"}, {"measurement": "Kaplan-Meier event-free estimates (95% CI)", "setting": "[3]; 12 months", "result": "80.7 (72.9, 86.4) %"}, {"measurement": "Kaplan-Meier event-free estimates (95% CI)", "setting": "[3]; 15 months", "result": "71.0 (61.9, 78.3) %"}, {"measurement": "Kaplan-Meier event-free estimates (95% CI)", "setting": "[3]; 18 months", "result": "66.5 (56.9, 74.4) %"}, {"measurement": "Kaplan-Meier event-free estimates (95% CI)", "setting": "[3]; 24 months", "result": "49.8 (38.5, 60.1) %"}, {"measurement": "Kaplan-Meier event-free estimates (95% CI)", "setting": "[3]; 30 months", "result": "36.1 (22.3, 50.1) %"}, {"measurement": "PFS Events", "setting": "[3]", "result": "55 (36.4) n (%)"}, {"measurement": "PFS events: Deaths", "setting": "[3]", "result": "8 (5.3) n (%)"}, {"measurement": "PFS events: Progression", "setting": "[3]", "result": "47 (31.1) n (%)"}, {"measurement": "estimated risk reduction (progression or death)", "setting": "[3]; Lutathera arm compared to High-dose Octreotide arm", "result": 72, "unit": "%"}, {"measurement": "PFS 25th percentile (95% CI)", "setting": "[3]", "result": "14.1 (10.9, 17.0) months"}, {"measurement": "PFS 75th percentile (95% CI)", "setting": "[3]", "result": "NE (29.0, NE)"}, {"measurement": "interaction with OAT3", "setting": "OAT3", "result": "absence of specific interaction"}, {"measurement": "delayed bone marrow toxicity", "setting": "[4]", "result": "1.5 to 2", "unit": "%"}, {"measurement": "AML and MDS", "setting": "progressive GEP-NETs; in vivo", "result": "< 1", "unit": "%"}, {"measurement": "Hematologic grade 3/4 AEs", "setting": "progressive GEP-NETs; in vivo", "result": 9, "unit": "%"}, {"measurement": "median OS from the start of re-treatment", "setting": "progressive GEP-NETs; re-treatment, available in 194 patients", "result": 26.78, "unit": "months"}, {"measurement": "DCR", "setting": "progressive GEP-NETs; re-treatment, available in 347 patients", "result": 71, "unit": "%"}, {"measurement": "median PFS", "setting": "progressive GEP-NETs; re-treatment, available in 414 patients", "result": 12.52, "unit": "months"}, {"measurement": "mean serum inhibin B levels", "setting": "serum inhibin B", "result": "significant decrease"}]}, {"smiles": "C[C@@H](O)[C@@H]1NC(=O)[C@H](CCCCN)NC(=O)[C@@H](Cc2c[nH]c3ccccc23)NC(=O)[C@H](Cc2ccccc2)NC(=O)[C@@H](NC(=O)[C@H](N)Cc2ccccc2)CSSC[C@@H](C(=O)N[C@H](CO)[C@@H](C)O)NC1=O", "note": "[Octreotide LAR, octreotide]", "values": [{"measurement": "plasma exposure vs dose", "setting": "[5]", "result": "dose-proportional"}, {"measurement": "Kaplan-Meier event-free estimates (95% CI)", "setting": "[3]; 4 months", "result": "73.5 (61.2, 82.4) %"}, {"measurement": "Kaplan-Meier event-free estimates (95% CI)", "setting": "[3]; 6 months", "result": "64.5 (51.8, 74.6) %"}, {"measurement": "Kaplan-Meier event-free estimates (95% CI)", "setting": "[3]; 9 months", "result": "46.0 (33.4, 57.7) %"}, {"measurement": "Kaplan-Meier event-free estimates (95% CI)", "setting": "[3]; 12 months", "result": "42.4 (30.0, 54.3) %"}, {"measurement": "Kaplan-Meier event-free estimates (95% CI)", "setting": "[3]; 15 months", "result": "36.4 (24.3, 48.5) %"}, {"measurement": "Kaplan-Meier event-free estimates (95% CI)", "setting": "[3]; 18 months", "result": "29.2 (17.7, 41.7) %"}, {"measurement": "Kaplan-Meier event-free estimates (95% CI)", "setting": "[3]; 24 months", "result": "19.5 (9.1, 32.7) %"}, {"measurement": "PFS Events", "setting": "[3]", "result": "46 (61.3) n (%)"}, {"measurement": "PFS events: Deaths", "setting": "[3]", "result": "5 (6.7) n (%)"}, {"measurement": "PFS events: Progression", "setting": "[3]", "result": "41 (54.7) n (%)"}, {"measurement": "Median PFS (95% CI)", "setting": "[3]", "result": "8.5 (7.7, 13.8) months"}, {"measurement": "PFS 25th percentile (95% CI)", "setting": "[3]", "result": "3.9 (3.7, 5.7) months"}, {"measurement": "PFS 75th percentile (95% CI)", "setting": "[3]", "result": "19.3 (13.8, NE) months"}, {"measurement": "Median PFS (95% CI)", "setting": "[3]; listed as High-dose Octreotide", "result": 8.5, "unit": "months"}, {"measurement": "Median PFS (95% CI)", "setting": "[3]; listed as high-dose Octreotide", "result": "8.5 (7.7, 13.8) months"}, {"measurement": "time to tumor progression", "setting": "metastatic midgut NET; 42 patients", "result": 14.3, "unit": "months"}, {"measurement": "patients achieving stable disease", "setting": "metastatic midgut NET", "result": 67, "unit": "%"}]}]}
